The record followed here is ChEMBL document CHEMBL5715936, “Selective Itk inhibitors block T-cell activation and murine lung inflammation” (Biochemistry, 2004).

The source made the active and inactive calls. No cut-off for these calls is given here.

In assay [1] the target is Insulin receptor (Homo sapiens, UniProt P06213). Briefly: Inhibition of IR (unknown origin) using GST-SLP-76 as peptide substrate incubated for 10 mins in presence of [gamma-33P]ATP by scintillation counter assay.
In assay [2] the target is Mitogen-activated protein kinase 3 (Homo sapiens, UniProt P27361). The assay can be described thus: Inhibition of ERK-1 (unknown origin) using GST-SLP-76 as peptide substrate incubated for 10 mins in presence of [gamma-33P]ATP by scintillation counter assay.
Chain of Mitogen-activated protein kinase 3 (P27361 whole entry): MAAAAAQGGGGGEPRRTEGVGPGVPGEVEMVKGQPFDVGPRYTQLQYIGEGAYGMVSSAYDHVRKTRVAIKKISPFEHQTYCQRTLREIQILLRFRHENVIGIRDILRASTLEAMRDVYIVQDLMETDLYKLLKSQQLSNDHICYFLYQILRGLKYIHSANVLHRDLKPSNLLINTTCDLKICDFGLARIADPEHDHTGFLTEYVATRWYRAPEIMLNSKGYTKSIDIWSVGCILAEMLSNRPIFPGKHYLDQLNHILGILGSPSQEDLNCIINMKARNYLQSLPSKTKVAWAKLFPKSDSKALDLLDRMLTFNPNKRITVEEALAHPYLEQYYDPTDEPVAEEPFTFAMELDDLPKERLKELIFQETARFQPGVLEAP
For assay [3], the target named is T1, Cytoplasmic tyrosine-protein kinase BMX (Homo sapiens, UniProt P51813).
T1 sequence (P51813 whole entry): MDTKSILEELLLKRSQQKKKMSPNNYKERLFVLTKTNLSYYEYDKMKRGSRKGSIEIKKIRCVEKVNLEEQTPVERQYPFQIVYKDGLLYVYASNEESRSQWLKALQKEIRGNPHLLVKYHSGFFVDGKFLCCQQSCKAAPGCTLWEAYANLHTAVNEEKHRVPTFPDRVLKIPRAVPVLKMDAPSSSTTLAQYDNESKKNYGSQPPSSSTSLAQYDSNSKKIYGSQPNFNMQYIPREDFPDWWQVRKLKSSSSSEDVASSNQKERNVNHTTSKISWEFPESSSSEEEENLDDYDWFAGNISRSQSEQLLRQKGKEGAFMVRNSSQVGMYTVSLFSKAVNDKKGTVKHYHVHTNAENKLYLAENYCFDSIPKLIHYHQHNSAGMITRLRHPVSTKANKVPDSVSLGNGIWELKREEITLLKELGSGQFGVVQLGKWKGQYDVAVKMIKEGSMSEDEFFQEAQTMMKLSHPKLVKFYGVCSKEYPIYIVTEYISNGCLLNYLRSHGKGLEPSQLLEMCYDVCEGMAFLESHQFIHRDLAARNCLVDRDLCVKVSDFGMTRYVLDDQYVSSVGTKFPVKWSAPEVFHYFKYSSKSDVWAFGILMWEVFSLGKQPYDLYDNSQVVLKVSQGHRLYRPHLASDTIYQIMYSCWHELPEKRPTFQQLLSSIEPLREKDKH
Briefly: Inhibition of Bmx (unknown origin) using GST-SLP-76 as peptide substrate incubated for 10 mins in presence of [gamma-33P]ATP by scintillation counter assay.

Assay [4] has as its target T2, Tyrosine-protein kinase Tec (Homo sapiens, UniProt P42680).
T2 sequence (P42680 whole entry): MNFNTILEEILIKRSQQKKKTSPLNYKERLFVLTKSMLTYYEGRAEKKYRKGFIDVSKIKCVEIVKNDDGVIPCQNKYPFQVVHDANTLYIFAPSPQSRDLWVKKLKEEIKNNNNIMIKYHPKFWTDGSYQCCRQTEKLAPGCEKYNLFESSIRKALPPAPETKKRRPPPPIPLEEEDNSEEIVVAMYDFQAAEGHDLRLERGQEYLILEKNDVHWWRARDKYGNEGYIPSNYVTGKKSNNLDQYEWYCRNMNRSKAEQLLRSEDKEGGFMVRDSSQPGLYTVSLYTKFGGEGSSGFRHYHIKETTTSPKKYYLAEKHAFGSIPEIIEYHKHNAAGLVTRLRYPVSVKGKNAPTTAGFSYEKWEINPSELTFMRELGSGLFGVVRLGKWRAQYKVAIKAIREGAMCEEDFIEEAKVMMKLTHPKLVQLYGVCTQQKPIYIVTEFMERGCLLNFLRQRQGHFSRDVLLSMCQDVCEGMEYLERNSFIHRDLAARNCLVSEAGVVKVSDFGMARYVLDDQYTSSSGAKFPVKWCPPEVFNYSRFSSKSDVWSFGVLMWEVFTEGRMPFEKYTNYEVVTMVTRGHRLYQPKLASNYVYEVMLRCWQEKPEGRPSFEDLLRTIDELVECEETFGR
Briefly: Inhibition of Tec (unknown origin) using GST-SLP-76 as peptide substrate incubated for 10 mins in presence of [gamma-33P]ATP by scintillation counter assay.

Assay [5] deals with cAMP-dependent protein kinase (PKA) (Homo sapiens, UniProt P22694+P17612+P22612). Briefly: Inhibition of PKA (unknown origin) using GST-SLP-76 as peptide substrate incubated for 10 mins in presence of [gamma-33P]ATP by scintillation counter assay. In kind it is protein assay.
Assay [6] addresses Inhibitor of nuclear factor kappa-B kinase subunit beta (Homo sapiens, UniProt O14920). Briefly: Inhibition of IKKbeta (unknown origin) using GST-SLP-76 as peptide substrate incubated for 10 mins in presence of [gamma-33P]ATP by scintillation counter assay.
A short description of assay [7]: Inhibition of CaMKII (unknown origin) using GST-SLP-76 as peptide substrate incubated for 10 mins in presence of [gamma-33P]ATP by scintillation counter assay. On the set-up: species or system Homo sapiens.
Assay [8] has as its system T-cell line. Briefly: Anti-proliferative activity against irradiated APC induced human T cell incubated for 3 days. It counts as functional, cell-based. The following applies: light or radiation study, 72 h.
The target of assay [9] is T3, Tyrosine-protein kinase ITK/TSK (Homo sapiens) (UniProt Q08881).
T3 sequence (whole entry): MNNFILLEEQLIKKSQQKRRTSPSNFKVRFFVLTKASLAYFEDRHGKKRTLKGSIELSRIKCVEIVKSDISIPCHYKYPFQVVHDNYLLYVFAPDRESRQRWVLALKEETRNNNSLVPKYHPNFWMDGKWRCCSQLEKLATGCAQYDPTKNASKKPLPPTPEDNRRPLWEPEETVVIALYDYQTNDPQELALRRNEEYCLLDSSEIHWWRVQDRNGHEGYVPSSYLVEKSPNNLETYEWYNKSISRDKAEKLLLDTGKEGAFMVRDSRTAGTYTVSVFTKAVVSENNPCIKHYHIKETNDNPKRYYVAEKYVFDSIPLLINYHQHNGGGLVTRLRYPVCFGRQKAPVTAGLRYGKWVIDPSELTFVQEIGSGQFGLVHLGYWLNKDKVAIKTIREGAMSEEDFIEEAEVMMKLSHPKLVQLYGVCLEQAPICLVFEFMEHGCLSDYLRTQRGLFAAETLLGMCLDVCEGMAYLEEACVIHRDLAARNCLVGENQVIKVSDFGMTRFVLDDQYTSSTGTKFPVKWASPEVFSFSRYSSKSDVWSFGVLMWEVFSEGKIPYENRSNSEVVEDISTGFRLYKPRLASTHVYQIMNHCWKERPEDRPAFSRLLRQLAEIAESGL
Briefly: Inhibition of Itk in human Jurkat T cells assessed as inhibition of PLCgamma1 phosphorylation incubated for 20 mins in presence of CD3 antibody G19-4 by Western blotting analysis. In kind it is cell-based. The following applies: dose 0.1-10 µM. For orientation: In western blotting, separated proteins are transferred to a membrane and probed.

The target in assay [10] is Glycogen synthase kinase-3 beta (Homo sapiens, UniProt P49841). The assay can be described thus: Inhibition of GSK-3beta (unknown origin) using GST-SLP-76 as peptide substrate incubated for 10 mins in presence of [gamma-33P]ATP by scintillation counter assay.
Chain of Glycogen synthase kinase-3 beta (P49841 whole entry): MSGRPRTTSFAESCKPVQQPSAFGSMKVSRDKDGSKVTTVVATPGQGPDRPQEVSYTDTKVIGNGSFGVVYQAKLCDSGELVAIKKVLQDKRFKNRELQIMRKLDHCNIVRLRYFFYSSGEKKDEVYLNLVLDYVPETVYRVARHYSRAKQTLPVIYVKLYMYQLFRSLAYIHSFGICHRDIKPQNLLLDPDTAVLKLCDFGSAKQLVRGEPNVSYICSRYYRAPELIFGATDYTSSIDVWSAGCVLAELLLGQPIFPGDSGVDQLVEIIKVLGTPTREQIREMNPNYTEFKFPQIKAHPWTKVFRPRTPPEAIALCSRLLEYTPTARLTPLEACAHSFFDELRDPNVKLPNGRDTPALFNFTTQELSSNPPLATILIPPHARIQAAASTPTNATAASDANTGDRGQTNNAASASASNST
Assay [11] concerns the target T3, Tyrosine-protein kinase ITK/TSK (Homo sapiens). Briefly: Inhibition of Itk in EGF-stimulated human A549 cells assessed as reduction in PLCgamma1 phosphorylation at <=10 uM incubated for 20 mins by Western blotting analysis. In kind it is cell-based.
Assay [12] shares this target. The assay can be described thus: Inhibition of Itk in EGF-stimulated human A549 cells assessed as reduction in tyrosine phosphorylation at <=10 uM incubated for 20 mins by Western blotting analysis. In kind it is cell-based.

Chain of Inhibitor of nuclear factor kappa-B kinase subunit beta (O14920 whole entry): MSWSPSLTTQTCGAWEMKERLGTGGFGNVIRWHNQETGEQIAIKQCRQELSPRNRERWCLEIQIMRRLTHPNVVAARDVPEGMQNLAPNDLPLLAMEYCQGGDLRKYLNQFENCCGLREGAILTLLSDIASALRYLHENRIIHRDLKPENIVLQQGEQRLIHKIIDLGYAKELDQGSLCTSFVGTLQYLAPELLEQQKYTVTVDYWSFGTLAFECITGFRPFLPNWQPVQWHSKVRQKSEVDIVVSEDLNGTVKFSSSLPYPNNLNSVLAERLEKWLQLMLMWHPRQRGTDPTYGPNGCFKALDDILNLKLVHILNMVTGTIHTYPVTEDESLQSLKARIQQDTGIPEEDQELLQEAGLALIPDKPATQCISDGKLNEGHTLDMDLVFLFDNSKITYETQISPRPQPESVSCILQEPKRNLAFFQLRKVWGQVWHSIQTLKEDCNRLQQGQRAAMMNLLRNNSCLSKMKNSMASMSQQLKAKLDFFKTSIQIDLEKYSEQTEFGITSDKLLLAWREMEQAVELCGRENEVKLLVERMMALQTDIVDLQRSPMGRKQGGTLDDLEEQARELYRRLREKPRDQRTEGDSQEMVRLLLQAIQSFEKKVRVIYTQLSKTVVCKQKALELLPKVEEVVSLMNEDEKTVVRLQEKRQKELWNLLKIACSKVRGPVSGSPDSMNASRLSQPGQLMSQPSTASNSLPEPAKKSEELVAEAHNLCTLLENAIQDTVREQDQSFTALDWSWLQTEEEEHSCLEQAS
Chain of Insulin receptor (P06213 28-758 limits assumed): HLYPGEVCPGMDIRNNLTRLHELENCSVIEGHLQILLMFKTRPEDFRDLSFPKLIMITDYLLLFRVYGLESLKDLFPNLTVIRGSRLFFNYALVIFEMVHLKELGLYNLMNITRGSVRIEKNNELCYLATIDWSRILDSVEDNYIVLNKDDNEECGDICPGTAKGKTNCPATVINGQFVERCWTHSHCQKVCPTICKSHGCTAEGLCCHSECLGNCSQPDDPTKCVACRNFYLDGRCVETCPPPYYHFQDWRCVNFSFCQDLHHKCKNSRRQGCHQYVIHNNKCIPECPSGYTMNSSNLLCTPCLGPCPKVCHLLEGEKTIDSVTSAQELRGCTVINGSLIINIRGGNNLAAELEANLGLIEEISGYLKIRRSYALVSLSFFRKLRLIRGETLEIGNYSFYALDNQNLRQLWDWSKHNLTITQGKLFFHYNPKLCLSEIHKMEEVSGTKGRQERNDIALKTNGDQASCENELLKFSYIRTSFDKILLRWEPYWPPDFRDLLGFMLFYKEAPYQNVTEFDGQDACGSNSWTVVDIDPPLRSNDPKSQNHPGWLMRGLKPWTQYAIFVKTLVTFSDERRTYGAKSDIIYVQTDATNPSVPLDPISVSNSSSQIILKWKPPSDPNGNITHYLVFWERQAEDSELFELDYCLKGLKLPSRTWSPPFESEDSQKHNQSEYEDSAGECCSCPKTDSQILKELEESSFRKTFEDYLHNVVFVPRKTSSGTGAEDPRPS
Chain of Insulin receptor (P06213 763-1382 limits assumed): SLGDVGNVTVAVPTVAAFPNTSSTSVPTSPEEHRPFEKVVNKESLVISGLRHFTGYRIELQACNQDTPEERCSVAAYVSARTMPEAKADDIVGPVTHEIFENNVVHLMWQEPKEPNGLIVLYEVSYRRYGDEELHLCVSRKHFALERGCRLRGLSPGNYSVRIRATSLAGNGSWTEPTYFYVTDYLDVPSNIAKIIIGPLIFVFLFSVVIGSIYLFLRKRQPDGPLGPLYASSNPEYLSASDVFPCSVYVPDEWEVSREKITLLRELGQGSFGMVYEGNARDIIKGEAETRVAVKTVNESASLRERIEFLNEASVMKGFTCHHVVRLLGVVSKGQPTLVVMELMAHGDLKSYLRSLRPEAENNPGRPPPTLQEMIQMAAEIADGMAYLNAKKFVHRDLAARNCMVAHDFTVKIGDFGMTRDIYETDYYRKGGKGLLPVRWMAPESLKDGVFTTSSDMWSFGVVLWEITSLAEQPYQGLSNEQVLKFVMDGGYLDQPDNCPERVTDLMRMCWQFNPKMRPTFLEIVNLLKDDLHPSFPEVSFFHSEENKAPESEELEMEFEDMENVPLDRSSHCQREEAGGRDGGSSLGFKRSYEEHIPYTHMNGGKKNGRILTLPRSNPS

The IC50 is the concentration at which inhibition is half-maximal. Regarding `CC(=O)N1CCN(C(=O)c2cc(CSc3cnc(NC(=O)c4ccc(CNC(C)C(C)(C)C)cc4)s3)cc(C)c2C)CC1` (centres undefined), the IC50 in assay [1] is 4.4 µM; in assay [2], greater than 50 µM; in assay [3], greater than 50 µM; in assay [4] it was greater than 50 µM; in assay [5] it was greater than 50 µM; in [6], greater than 50 µM. Also, the values for the IC50 in [7], in assay [8] and in assay [10] were greater than 50 µM, 0.35 µM and 47.4 µM, respectively. Moreover, the inhibition result in [9] was “Dose-Dependent Effect”. Also, the inhibition result in [11] and in assay [12] was “Active” in each case.
With `COc1cc(C)c(Sc2cnc(NC(=O)c3ccc(CNC(C)C(C)(C)C)cc3)s2)cc1C(=O)N1CCN(C(C)=O)CC1` (centres undefined), the concentration for half-maximal inhibition (IC50) in assay [1] was 1.1 µM; in [2] it was greater than 50 µM; in [3] it was greater than 50 µM; in assay [4], 17 µM; in assay [5], greater than 50 µM; in assay [6], greater than 50 µM. For the same compound, the 50% inhibitory concentration (IC50) in assay [7] worked out at 33.5 µM; in assay [8], 0.43 µM; in assay [10] it was 36 µM. For the same compound, the inhibition entry in assay [9] was “Dose-Dependent Effect”. Also, the inhibition result in [11] and in [12] was “Active” in each case.
